Source: patent US7563921B2, “2-cyano-3(halo)alkoxy-benzenesulfonamide compounds for combating animal pests” (BASF Aktiengesellschaft, priority 2004, dated 2009)

What was measured:
Bean Aphid (Aphis fabae) = assay: Bean Aphid plant dip test on nasturtium plants; format: in vivo; details: 72 h, nasturtium plants dipped, aphid mortality after 3 days, read-out: mortality in comparison with untreated controls
Source text: (§1) The active compounds were formulated in 50:50 acetone:water and 100 ppm Kinetic® surfactant.
Nasturtium plants grown in Metro mix in the 1st leaf-pair stage (variety ‘Mixed Jewel’) were infested with approximately 20-30 laboratory-reared aphids by placing infested cut plants on top of the test plants. The cut plants were removed after 24 hr. Each plant was dipped into the test solution to provide complete coverage of the foliage, stem, protruding seed surface and surrounding cube surface and allowed to dry in the fume hood. The treated plants were kept at about 25° C. with continuous fluorescent light. Aphid mortality is determined after 3 days.

[1] = test system: Cotton Aphid (Aphis gossypii); assay: Cotton Aphid cotyledon dip test on cotton plants; format: in vivo; details: 120 h, cotton cotyledons dipped, mortality counts after 5 days, read-out: mortality in comparison with untreated controls
Source text: Cotton Aphid (Aphis gossypii)
as §1
Cotton plants in the cotyledon stage (variety ‘Delta Pine’, one plant per pot) were infested by placing a heavily infested leaf from the main colony on top of each cotyledons. The aphids were allowed to transfer to the host plant overnight, and the leaf used to transfer the aphids was removed. The cotyledons were dipped in the test solution and allowed to dry. After 5 days, mortality counts were made.

[2] = test system: Green Peach Aphid (Myzus persicae); assay: Green Peach Aphid foliar dip test on pepper plants; format: in vivo; details: 120 h, pepper plant leaves dipped, aphid mortality after 5 days, read-out: mortality in comparison with untreated controls
Source text: Green Peach Aphid (Myzus persicae)
as §1
Pepper plants in the 2nd leaf-pair stage (variety ‘California Wonder’) were infested with approximately 40 laboratory-reared aphids by placing infested leaf sections on top of the test plants. The leaf sections were removed after 24 hr. The leaves of the intact plants were dipped into gradient solutions of the test compound and allowed to dry. Test plants were maintained under fluorescent light (24 hour photoperiod) at about 25° C. and 20-40% relative humidity. Aphid mortality on the treated plants, relative to mortality on check plants, was determined after 5 days.

[3] = test system: cotton aphids (Aphis gossypil); assay: Cotton seed treatment, control of foliar aphids; format: in vivo, Aphis gossypii; details: live aphids counted four days after infestation, versus solvent blank controls
Method: Experimental compound no. 1 (N,N-Dimethyl-2-cyano-3-difluoromethoxyphenylsulfonamide) was evaluated to determine their insecticidal efficacy for control of foliar aphids when applied as seed treatment.
Experimental compound no. 1 was formulated by dissolving 10.5 mg technical material in 45 μl acetone then adding 255 μl 0.05% aqueous TWEEN 20 (polyoxyethylene (20) sorbitan monolaurate).
Twenty-five cotton seeds (variety Sure-Grow 747) were placed in a 20-ml glass vial and then 150 μl of the compound formulation were pipetted onto the side of the vial just above the seeds. Vials were vortexed for 30 seconds to rapidly spin the seeds within the vial to apply the compound to the seeds. Treated seeds were then air-dried. […]
Twenty-four cotton seeds were planted in Metro Mix potting mix in twelve 7.6-cm-square pots, 2 seeds per pot. Crop selectivity was determined by comparing seedling emergence and recording any foliar and shoot symptoms.
Seedling plants were thinned to one plant per pot. […] The exact number of aphids transferred to each plant was recorded.
Four days after infestation, live aphids on each plant were counted. The aphid population increase for each control plant was calculated by dividing the final aphid population by the initial population. The median aphid population increase on the solvent blank controls was then calculated. […]

SMILES | mortality at 300 ppm (Bean Aphid (Aphis fabae)) | mortality at 300 ppm [1] | mortality at 300 ppm [2] | reduction of the aphid population [3]
CN(C)S(=O)(=O)c1cccc(OC(F)F)c1C#N [Compound 1, N,N-Dimethyl-2-cyano-3-difluoromethoxyphenylsulfonamide] | > 85% | > 85% | > 85% | significant reduction of the aphid population
COc1cccc(S(=O)(=O)N(C)C)c1C#N [Compound 2, N,N-Dimethyl-2-cyano-3-methoxyphenylsulfonamide] | > 85% | > 85% | > 85% | –
